Measured values: ChEMBL document CHEMBL1156141, “Synthesis and biological evaluation of novel thiocolchicine-podophyllotoxin conjugates” (Eur J Med Chem, 2010)
The source made the active and inactive calls. The rule behind the calls is not given here.

Assays:
[1] = test system: A549; settings: Homo sapiens, at 0.5 µM
Description: Inhibition of microtubule in human A549 cells assessed as roundish cells at 0.5 uM after 24 hrs by immunofluorescence analysis

[2] = test system: A549; experiment: Inhibition of microtubule in human A549 cells assessed as roundish cells at 0.5 uM after 1 hr by immunofluorescence analysis; type: cell-based
[3] = test system: A549; experiment: Inhibition of microtubule in human A549 cells assessed as microtubule organization at 0.5 uM after 1 hr by immunofluorescence analysis; type: cell-based
[4] = test system: A549; settings: Homo sapiens, at 0.5 µM; remark: listed apart in the source
Description: Inhibition of microtubule in human A549 cells assessed as network disappearane at 0.5 uM after 1 hr by immunofluorescence analysis

[5] = Chemical stability assessed as disulfide cleavage after 3 hrs by ESI-MS in presence of L-glutathione; type: physicochemical

Row | Compound | inhibition [1] | inhibition [2] | inhibition [3] | inhibition [4] | Stability [5]
1 | COc1cc([C@@H]2c3cc4c(cc3[C@H](OC(=O)CSSCC(=O)O[C@H]3c5cc6c(cc5[C@@H](c5cc(OC)c(OC)c(OC)c5)[C@H]5C(=O)OC[C@@H]53)OCO6)[C@H]3COC(=O)[C@H]23)OCO4)cc(OC)c1OC | Active | 50% |  |  | 
2 | COc1cc([C@@H]2c3cc4c(cc3[C@H](OC(=O)CCCCC(=O)O[C@H]3c5cc6c(cc5[C@@H](c5cc(OC)c(OC)c(OC)c5)[C@H]5C(=O)OC[C@@H]53)OCO6)[C@H]3COC(=O)[C@H]23)OCO4)cc(OC)c1OC | Active |  | inactive |  | 
3 | COc1cc2c(c(OC)c1OC)-c1ccc(SC)c(=O)cc1[C@@H](NC(=O)CSSCC(=O)N[C@H]1CCc3cc(OC)c(OC)c(OC)c3-c3ccc(SC)c(=O)cc31)CC2 | Active |  |  | Active | Unstable
4 | COc1cc([C@@H]2c3cc4c(cc3[C@H](OC(=O)C(N)CSSCC(N)C(=O)O[C@H]3c5cc6c(cc5[C@@H](c5cc(OC)c(OC)c(OC)c5)[C@H]5C(=O)OC[C@@H]53)OCO6)[C@H]3COC(=O)[C@H]23)OCO4)cc(OC)c1OC (stereo partly specified) | Active |  |  | Active | 
5 | COc1cc2c(c(OC)c1OC)-c1ccc(SC)c(=O)cc1[C@@H](NC(=O)C(N)CSSCC(N)C(=O)N[C@H]1CCc3cc(OC)c(OC)c(OC)c3-c3ccc(SC)c(=O)cc31)CC2 (stereo partly specified) | Active | 50% |  |  | 
6 | COc1cc([C@@H]2c3cc4c(cc3[C@H](O)[C@H]3COC(=O)[C@H]23)OCO4)cc(OC)c1OC | Active |  |  | Active | 
7 | COc1cc([C@@H]2c3cc4c(cc3[C@H](OC(=O)CCCSSCCCC(=O)N[C@H]3CCc5cc(OC)c(OC)c(OC)c5-c5ccc(SC)c(=O)cc53)[C@H]3COC(=O)[C@H]23)OCO4)cc(OC)c1OC | Active |  |  | Active | 
8 | COc1cc2c(c(OC)c1OC)-c1ccc(SC)c(=O)cc1[C@@H](NC(=O)C(N)CCCCC(N)C(=O)N[C@H]1CCc3cc(OC)c(OC)c(OC)c3-c3ccc(SC)c(=O)cc31)CC2 (stereo partly specified) | Active |  | inactive |  | 
9 | COc1cc2c(c(OC)c1OC)-c1ccc(SC)c(=O)cc1[C@@H](NC(=O)CCSSCCC(=O)N[C@H]1CCc3cc(OC)c(OC)c(OC)c3-c3ccc(SC)c(=O)cc31)CC2 | Active |  |  | Active | 
10 | COc1cc2c(c(OC)c1OC)-c1ccc(SC)c(=O)cc1[C@@H](NC(=O)CCCCC(=O)N[C@H]1CCc3cc(OC)c(OC)c(OC)c3-c3ccc(SC)c(=O)cc31)CC2 | Active | 50% |  |  | 
